Entries after “also recorded” stand apart in the source; their conditions may differ. Like-named read-outs stand apart in the source and are kept apart here.

A short description of one data set: clinical. To be noted: human, in vivo. As for the experimental part: Linaprazan glurate is a prodrug of linaprazan, which was disclosed in WO 99/55706 and previously studied in Phase I and II studies. […] A clinical Phase I study has shown that administration of a single dose of linaprazan glurate can maintain the intragastric acidity above pH 4 for 24 hours. Linaprazan glurate is therefore tailored for patients with severe erosive gastroesophageal reflux disease (eGERD).
Whereas the plasma concentration of linaprazan glurate is only very low and difficult to determine, the plasma concentration of linaprazan may be determined instead. […] It is estimated that this requires a minimal plasma concentration (Cmin) of linaprazan of at least about 240 nmol/L after 22 hours. At such doses, a once daily oral administration of the formulation would be sufficient. In some embodiments, therefore, a single unit dose of a pharmaceutical composition of linaprazan glurate provides a Cmin of linaprazan in a human of at least about 240 nmol/L after 22 hours following oral administration of the pharmaceutical composition to said human. In other embodiments, a daily administration of two unit doses of a pharmaceutical composition of linaprazan glurate provides a Cmin of linaprazan in a human of at least about 240 nmol/L after 10 hours following oral administration of the last unit dose of the pharmaceutical composition to said human.

In a further data set the test system is gastric acid. To be noted: Phase I and II studies; cited from earlier work.
A short description of data set [1]: Dynamic/gravimetric vapour sorption (DVS/GVS) hygroscopicity. The data set is classed as physicochemical. To be noted: for hygroscopicity (in words): DVS/GVS at 25° C. The protocol:
Analyses were performed on an SMS DVS Advantage instrument. A few mg of the substance was added into an Al pan and exposed to stepwise RH changes according to 0-90-20% in steps of 10% RH, using open loop mode. The experiments were performed using a gas flow rate of 200 mL/min and at 25° C. The dm/dt criteria applied was 0.001 weight-%/min during a 5-minute window, with a maximum allowed time of 150 minutes and a minimum allowed time of 50 minutes for all steps except for the step at 0% RH, which had no criteria but was set to 6 h.
The hygroscopicity of Form A (as obtained from the synthesis described in Example 1), Form B (as obtained from a slurry in methanol/water 4:1) and Form C (as obtained from a slurry in ethanol) were investigated using GVS at 25° C. […] Form A can thus be classified as non-hygroscopic.
With a weight gain of about 3% at elevated humidities, it appears that a hydrate form is formed. Upon drying, Form B returned to the anhydrate; see FIGS. 12A and 12B, respectively.
Form C is thus classified as non-hygroscopic.

Data set [2] is described as follows: Thermogravimetric analysis (TGA) weight loss. The data set is classed as physicochemical. To be noted: heating up to 175° C. The protocol: Analyses were performed on a PerkinElmer TGA8000 instrument. A few mg of sample was gently charged into open Pt-pans and analysed by weight in a flow of dry nitrogen gas (40 mL/min), to ensure an inert atmosphere. The sample was scanned from 25 to 200° C. using a continuous scan speed of 10° C./min.
This confirms that Form A is an anhydrate.

The conditions of data set [3]: cited from earlier work.
Another data set deals with intragastric acidity. To be noted: cited from earlier work.
For data set [4] the following is noted: cited from earlier work. This is another data set of the same source.
[5] abbreviates: GVS at 25° C., humidity range of 0-90%.

Regarding `Cc1cccc(C)c1CNc1cc(C(=O)NCCO)cn2c(C)c(C)nc12` [linaprazan], the concentration at 22 h in “clinical” was at least 240 nM. In the data set on gastric acid, the “duration of acid inhibition” value was “too short duration”, the “elimination from the body” value is “quickly eliminated from the body”, the onset of action entry is “fast onset of action” and the tolerability result is reported as “well tolerated”.
`Br.Cc1cccc(C)c1CNc1cc(C(=O)NCCOC(=O)CCCC(=O)O)cn2c(C)c(C)nc12` [Form B]: in data set [1], the “hygroscopicity (in words)” value is listed as “significant water uptake with increasing humidity”. The weight gain result in data set [1] (GVS at 25° C., elevated humidities) is on record as “about 3%”. In addition, the weight loss in data set [2] came out at 0.3%.
In the case of `Cc1cccc(C)c1CNc1cc(C(=O)NCCOC(=O)CCCC(=O)O)cn2c(C)c(C)nc12` [Form A of the free base], the solubility in water entry in data set [3] (pH 1) is on record as “slightly soluble”; in data set [3] (pH 6.8) it was “practically insoluble”.
In the case of `Br.Cc1cccc(C)c1CNc1cc(C(=O)NCCOC(=O)CCCC(=O)O)cn2c(C)c(C)nc12` [Form A], the water uptake entry in data set [1] (DVS, at 80% RH) is reported as “about 0.15%”; in data set [1] (setting [5]), around 0.22%. Also, the “hygroscopicity (in words)” value in data set [1] was “non-hygroscopic; also recorded: very low hygroscopicity”. The weight loss in data set [2] worked out at 0.3%.
For `Cc1cccc(C)c1CNc1cc(C(=O)NCCOC(=O)CCCC(=O)O)cn2c(C)c(C)nc12` [linaprazan glurate, 5-{2-[({8-[(2,6-dimethylbenzyl)amino]-2,3-dimethylimidazo[1,2-a]pyridine-6-yl}carbonyl)-amino]ethoxy}-5-oxopentanoic acid], the “control of gastric acid production” value in the data set with intragastric acidity (compared to linaprazan) is given as “total control of the gastric acid production for a longer time”. Besides, the “time intragastric acidity maintained above pH 4” value with intragastric acidity (single dose, Phase I) is given as 24 hours. Moreover, the plasma concentration entry in data set [4] (after absorption) is “only very low”. For the same compound, the “half-life in the body” value in data set [4] (compared to linaprazan) is reported as “longer half-life”. Further, the “metabolism after absorption into the blood stream” value in data set [4] (in vivo) was “quickly metabolized into linaprazan”.
On to `Br.Cc1cccc(C)c1CNc1cc(C(=O)NCCOC(=O)CCCC(=O)O)cn2c(C)c(C)nc12` [Form C], for which the water content result in data set [1] (DVS, at 90% RH) is “not more than 0.05%”. Moreover, in data set [1], the “hygroscopicity (in words)” value is reported as “non-hygroscopic; also recorded: very low”. In addition, the water uptake result in data set [1] (setting [5]) is listed as “about 0.05%”. In data set [2], this compound registered a weight loss of 0.2%.

Source of the values: US20260217705A1, “POLYMORPHS OF THE HYDROBROMIDE SALT OF LINAPRAZAN GLURATE” (CINCLUS PHARMA HOLDING AB (PUBL), priority 2023, published 2026).
